How the values were obtained:
Assay type in all cases: cell-based
[1] = system: yeast Saccharomyces cerevisiae X2180-1B; assay: Fungicidal activity / MIC at 50° C. versus 30° C., yeast survival in YEPD broth pH 3.4
Experimental: In the table the minimum inhibitory concentration (MIC) is given for each compound as well as the molecular weight (M.W.), the logPoct and a rating of its importance. […] The logPoct, that is the logarithm of the partition coefficient of the relevant compound in octanol and thus a measure of its […], was determined using […]™ software from the CHEMOFFICE ULRA ENHANCED 2000™ software package (version 5.5) that is commercially available from CambridgeSoft.
(§1) YEPD contained glucose, 20 g/l, peptone 20 g/l and yeast extract 10 g/l. Rows of 30 ml tubes containing 10 ml YEPD, pH 3.4, were equilibrated at the required temperature for 7 minutes in a water bath, before inoculation with 10^4 cells/ml of the yeast Saccharomyces cerevisiae X2180-1B. Tubes were held at temperature for 10 minutes before being cooled rapidly in cold water for 5 minutes. Tubes were then incubated for 48 hours at 25° C. to allow surviving yeasts to grow out, and form discrete colonies.
as §1, §1, §1

[2] = system: yeast Saccharomyces cerevisiae X2180-1B; assay: Ready to Drink tea experiments, yeast growth after heat + pasteurisation adjunct; settings: 0-200 ppm, OD 600 nm at 14 days
Experimental: Rows of 30 ml tubes containing 10 ml RTD tea, pH 3.4, were equilibrated at the required temperature for 7 minutes in a water bath, before inoculation with 10^4 cells/ml of the yeast Saccharomyces cerevisiae […]-1B. Tubes were held at temperature for 2 minutes before being cooled rapidly in cold water for 5 minutes. Tubes were then incubated for 14 days at 25° C. to allow surviving yeasts to grow out. At 14 days growth was measured by optical density at 600 nm in x11 diluted samples. […] Rows of 30 ml tubes containing 10 ml RTD tea, pH 3.4, were equilibrated at the required temperature for 7 minutes in a water bath, before inoculation with 10^4 cells/ml of the yeast Saccharomyces cerevisiae […]-1B. Tubes were held at temperature for 2 minutes before being cooled rapidly in cold water for 5 minutes. Tubes were then incubated for 14 days at 25° C. to allow surviving yeasts to grow out. At 14 days growth was measured by optical density at 600 nm in x11 diluted samples. […] Rows of 30 ml tubes containing 10 ml RTD tea, pH 3.4, were equilibrated at the required temperature for 7 minutes in a water bath, before inoculation with 10^4 cells/ml of the yeast Saccharomyces cerevisiae […]-1B. Tubes were held at temperature for 2 minutes before being cooled rapidly in cold water for 5 minutes. Tubes were then incubated for 14 days at 25° C. to allow surviving yeasts to grow out. At 14 days growth was measured by optical density at 600 nm in x11 diluted samples. […] Rows of 30 ml tubes containing 10 ml RTD tea, pH 3.4, were equilibrated at the required temperature for 7 minutes in a water bath, before inoculation with 10^4 cells/ml of the yeast Saccharomyces cerevisiae […]-1B. Tubes were held at temperature for 2 minutes before being cooled rapidly in cold water for 5 minutes. Tubes were then incubated for 14 days at 25° C. to allow surviving yeasts to grow out. At 14 days growth was measured by optical density at 600 nm in x11 diluted samples. […] Rows of 30 ml tubes containing 10 ml RTD tea, pH 3.4, were equilibrated at the required temperature for 7 minutes in a water bath, before inoculation with 10^4 cells/ml of the yeast Saccharomyces cerevisiae […]-1B. Tubes were held at temperature for 2 minutes before being cooled rapidly in cold water for 5 minutes. Tubes were then incubated for 14 days at 25° C. to allow surviving yeasts to grow out. At 14 days growth was measured by optical density at 600 nm in x11 diluted samples. […] Rows of 30 ml tubes containing 10 ml RTD tea, pH 3.4, were equilibrated at the required temperature for 7 minutes in a water bath, before inoculation with 10^4 cells/ml of the yeast Saccharomyces cerevisiae […]-1B. Tubes were held at temperature for 2 minutes before being cooled rapidly in cold water for 5 minutes. Tubes were then incubated for 14 days at 25° C. to allow surviving yeasts to grow out. At 14 days growth was measured by optical density at 600 nm in x11 diluted samples. […] Rows of 30 ml tubes containing 10 ml RTD tea, pH 3.4, were equilibrated at the required temperature for 7 minutes in a water bath, before inoculation with 10^4 cells/ml of the yeast Saccharomyces cerevisiae […]-1B. Tubes were held at temperature for 2 minutes before being cooled rapidly in cold water for 5 minutes. Tubes were then incubated for 14 days at 25° C. to allow surviving yeasts to grow out. At 14 days growth was measured by optical density at 600 nm in x11 diluted samples. […] Rows of 30 ml tubes containing 10 ml RTD tea, pH 3.4, were equilibrated at the required temperature for 7 minutes in a water bath, before inoculation with 10^4 cells/ml of the yeast Saccharomyces cerevisiae […]-1B. Tubes were held at temperature for 2 minutes before being cooled rapidly in cold water for 5 minutes. Tubes were then incubated for 14 days at 25° C. to allow surviving yeasts to grow out. At 14 days growth was measured by optical density at […] in x11 diluted samples.

[3] = system: bacteria, Gluconobacter sp. 222; assay: Bacteria experiments, growth after heat + pasteurisation adjunct; settings: 0-100 ppm, growth measured visually at 14 days
Experimental: Rows of 30 ml tubes containing 10 ml soft drink, pH 3.4, were equilibrated at the required temperature for 7 minutes in a water bath, before inoculation with 10^4 cells/ml of the bacteria, Gluconobacter sp. 222. Tubes were held at temperature for 2 minutes before being cooled rapidly in cold water for 5 minutes. Tubes were then incubated for 14 days at 25° C. to allow surviving bacteria to grow out. At 14 days growth was measured visually.

## CCCCCCCCCCCC(=O)O [Lauric acid]
[1]; 30° C.
  fungicidal activity at 30° C.: no fungicidal activity
[1]; 50° C.
  fungicidal activity when heated to 50° C.: significant fungicidal activity
[1]; rating as pasteurisation adjunct
  Importance: High (High effects compounds, most preferred, generally showed at least a 5 fold decrease in MIC, minimum inhibitory concentration at 50 °C compared with 30° C.)
[2]; Ready to Drink tea 0.14% tea pH 3.4, held at temperature 2 minutes
  effect of heat+pasteurisation adjunct on yeast growth: remarkable combined synergistic effect
[2]; Ready to Drink tea 0.14% tea pH 3.4, low temperature
  effect of pasteurisation adjunct at low temperature on yeast growth: little effect
[3]; Ready to Drink tea or synthetic soft drink pH 3.4, 2 minutes at temperature
  effect of heat+pasteurisation adjunct on bacteria: remarkable combined synergistic effect
[3]; Ready to Drink tea or synthetic soft drink pH 3.4, low temperature
  effect of pasteurisation adjunct at low temperature on growth: little effect

Reference: patent US6579556B2, “Ambient stable beverage” (Lipton, division of Conopco, Inc., priority 2000, dated 2003)
